Assay results from patent US20080096967A1, “Formulations for Injection of Catecholic Butanes, Including Ndga Compounds, Into Animals” (priority 2005, published 2008).

System: Beagle dogs
Experiment: Intravenous infusion toxicity study (maximum tolerable dose, escalating doses) in Beagle dogs
Type: in vivo
Method: The purpose of this study was to determine the maximum tolerable dose of tetra-O-methyl NDGA (M4N) when administered by intravenous infusion to male and female Beagle dogs, supplied by Convince Research Products (Cumberland, Va., U.S.A). Two Beagle dogs, one male and one female, about 6 to 9 months old at first dose, were administered the cyclodextrin vehicle containing 20% (w/v) HP-β-CD and 50% PEG 300, on Study Day (“SD”) 1, followed by escalating levels of M4N prepared in the cyclodextrin vehicle (i.e., the test articles). The preformed cyclodextrin vehicle and test articles were stored at room temperature. Sterile water, used as diluent, was obtained from Baxter Health Care Corp. (Deerfield, Mich., U.S.A) or Abbott Laboratories (North Chicago, Ill., U.S.A.) and stored at room temperature.
The test article, cyclodextrin vehicle and diluent were considered 100% pure for formulation purposes. Dose formulations were prepared on each day of dosing by adding the appropriate amount of test article or cyclodextrin vehicle into a glass container using a sterile syringe. For each dose, an equal amount of sterile water was added to the M4N formulation or cyclodextrin vehicle to form a 50:50 (v/v) dilution. No dilution was required for the 200 mg/kg dose. All formulations were mixed by gentle inversion to ensure that a proper solution was formed. Formulations were loaded into medication cassettes and stored at room temperature until needed.
M4N was administered at 25 mg/kg on SD 3, 50 mg/kg on SD 5, and 100 mg/kg on SD 8. Only the female received the full 100 mg/kg dose; due to mechanical malfunctions caused by precipitation in the infusion line, the male dog received approximately 72 mg/kg (i.e., 72%) of the intended dose. Two additional Beagle dogs were administered a 200 mg/kg dose; however, mechanical difficulties ensued and the male dog received approximately 180 mg/kg (90%) of the intended dose, whereas the amount the female received could not be determined.
Using aseptic surgical techniques, the animals were catheterized with an in-dwelling catheter inserted into the jugular vein, and were treated prophylactically with an analgesic and antibiotic on the day of surgery and with antibiotics and/or analgesics for 8 days following surgery.
Following completion of each intravenous infusion, 1 mL of sterile saline was administered as a slow bolus injection to flush the test material from the infusion line into the animal, followed by an injection of heparin-saline solution to fill the infusion line to maintain patency. The animals were observed. Cageside observation included observation for mortality, morbundity, general health, and signs of toxicity. […]

Question: `COc1ccc(C[C@@H](C)[C@@H](C)Cc2ccc(OC)c(OC)c2)cc1OC` [Formulation M4N, meso-1,4-bis(3,4-dimethoxyphenyl)-2,3-dimethylbutane] was tested. Which “Individual Body Weights” value (Male dog 10567, SD13) did it give?
Answer: Its value is 10.2 kg.

Question: And the “gross pathology and microscopic changes” value (dog, in vivo)?
Answer: Its value is “no test-article related gross pathology findings or microscopic changes”.

Question: What about the “doses at which no treatment-related adverse effects were observed” value (dog, in vivo, iv) of the same compound?
Answer: The value was “up to 200 mg/kg”.

Question: What about the mortality (escalating IV infusion doses 25 to 200 mg/kg in 20% HP-β-CD/50% PEG 300 vehicle) of the same compound?
Answer: The mortality was “no effect”.
